Measurements taken from patent US8574831B2, “Mutational profiles in HIV-1 reverse transcriptase correlated with phenotypic drug resistance” (Virco N.V., priority 2000, dated 2013).

Test system: HIV with mutations in the HIV protease sequence
Test: Phenotypic fold resistance to protease inhibitors, protease mutations 84A/84L/84C/54M/54L/54V in a background (Examples 8-13)
Assay type: cell-based, HIV-1
Description: As is the case with the genotyping assays, the recombinant virus assay starts with the amplification of viral target sequences by means of PCR. The amplicons are incorporated into a proviral laboratory clone with sequences homologous to those present in the amplicon deleted. This generates a stock of chimeric viruses. The viruses are tested for their ability to grow in the presence of different concentrations of drugs. Results are obtained by calculating IC50 values for each inhibitor and by reporting the results as IC50 values, expressed in μM concentrations, or by computing the ratio of the IC50 values found for the chimeric virus to the IC50 values found for a wild type susceptible laboratory virus tested in parallel. In the latter case, resistance is expressed as “fold-resistance” compared to a wild-type susceptible HIV-1 strain. In order to meet the need for high-volume testing and a short turn-around time for an individual test, the latest generation of phenotyping assays has undergone further modifications. The use of reporter gene systems for susceptibility testing allows the implementation of laboratory automation and standardization. See Pauwels, et al., J. Virol. Methods 20, 309-321 (1998); Paulous, S., et al., International Workshop on HIV Drug Resistance, Treatment Strategies and Eradication, St. Petersburg, Fla., USA. Abstr. 46 (1997); and Deeks, S. G., et al., 2nd International Workshop on HIV Drug Resistance and Treatment Strategies, Lake Maggiore, Italy. Abstr. 53 (1998).
The ANTIVIROGRAM® assay (Virco) (WO 97/27480) is based on homologous recombination of patient derived HIV-1 gag/PR/RT sequences into a proviral HIV-1 clone correspondingly deleted for the gag/PR/RT sequences. See Pauwels, et al., J. Virol. Methods 20, 309-321 (1998). A similar assay (Phenosense ViroLogic) is based on enzymatic ligation of patient-derived PR/RT sequences into a correspondingly deleted proviral vector carrying an indicator gene, luciferase, inserted in the deleted HIV-1 envelope gene. See Deeks, S. G., et al., 2nd International Workshop on HIV Drug Resistance and Treatment Strategies, Lake Maggiore, Italy. Abstr. 53 (1998). Hertogs et al. Antimicrob. Agents Chemother. 44(3) 568-573 (2000) the disclosures of which are herein incorporated by reference.
The methods of monitoring HIV-1 drug resistance, may also be used in combination with phenotypic drug resistance testing of viral isolates. For example, in one embodiment, a phenotypic test is utilized that is based upon the construction of chimeric HIV-1 strains composed of the protease (PR) and reverse transcriptase (RT) gene sequences which are isolated and amplified from the patient viral RNA. These strains may subsequently be recombined inside CD4+ T cells with a standard laboratory isogenic (HXB2) HIV-1 DNA construct from which the PR/RT gene sequences were deleted. The recombinant strains may then be grown in the presence of the above-mentioned antiviral drugs and the susceptibility of the viral isolates may be expressed as fold-change value of the IC50 of the drug on the patient isolates over the IC50 of the drug on a wild-type laboratory reference strain.

## CC(C)(C)NC(=O)[C@@H]1C[C@@H]2CCCC[C@@H]2CN1C[C@@H](O)[C@H](Cc1ccccc1)NC(=O)[C@H](CC(N)=O)NC(=O)c1ccc2ccccc2n1 [Saquinavir, saquinavir]
Table 12, V055199, genotype 10I + 33F + 54M + 90M
  Fold change in IC50: 5.6 fold
Table 13, V19263, genotype 77I
  Fold change in IC50: 0.3 fold
Table 13, V20160, genotype WT
  Fold change in IC50: 0.9 fold
Table 13, V021667, genotype 10I
  Fold change in IC50: 0.9 fold
Table 13, V030496, genotype 10I + 77I
  Fold change in IC50: 0.3 fold
Table 13, V048868, genotype 10I + 54L + 71V + 77I + 90M
  Fold change in IC50: 16.5 fold
Table 13, V048874, genotype 10I + 33F + 54L + 71V + 77I + 90M
  Fold change in IC50: 4.6 fold
Table 13, V048875, genotype 10I + 33F + 54L + 71V + 77I + 90M
  Fold change in IC50: 12.0 fold
Table 13, V048877, genotype 10I + 33F + 77I + 90M
  Fold change in IC50: 1.5 fold
Table 13, V048880, genotype 10I + 33F + 77I + 90M
  Fold change in IC50: 2.7 fold
Table 13, V052940, genotype 71V
  Fold change in IC50: 0.8 fold
Table 13, V052942, genotype 10I + 71V
  Fold change in IC50: 0.8 fold
Table 13, V052943, genotype 10I + 90M
  Fold change in IC50: 1.1 fold
Table 13, V052944, genotype 10I + 90M
  Fold change in IC50: 0.7 fold
Table 13, V052945, genotype 77I + 90M
  Fold change in IC50: 1.4 fold
Table 13, V052946, genotype 71V + 90M
  Fold change in IC50: 1.4 fold
Table 13, V052947, genotype 10I + 77I + 90M
  Fold change in IC50: 3.9 fold
Table 13, V052948, genotype 10I + 71V + 90M
  Fold change in IC50: 4.8 fold
Table 13, V052949, genotype 10I + 71V + 77I + 90M
  Fold change in IC50: 2.1 fold
Table 13, V052950, genotype 33F
  Fold change in IC50: 1.2 fold
Table 13, V052951, genotype 33F + 77I
  Fold change in IC50: 0.4 fold
Table 13, V052953, genotype 10I + 33F + 77I
  Fold change in IC50: 1.2 fold
Table 13, V052954, genotype 33F + 77I + 90M
  Fold change in IC50: 1.7 fold
Table 13, V052955, genotype 33F + 71V + 90M
  Fold change in IC50: 20.4 fold
Table 13, V052968, genotype 10L/I + 33F/L + 54L + 77I
  Fold change in IC50: 1.5 fold
Table 13, V052969, genotype 10I + 33F + 54L + 90M
  Fold change in IC50: 1.4 fold
Table 13, V052970, genotype 54L
  Fold change in IC50: 0.7 fold
Table 13, V052971, genotype 10I + 54L
  Fold change in IC50: 0.7 fold
Table 13, V052972, genotype 54L + 77I
  Fold change in IC50: 1.0 fold
Table 13, V052973, genotype 10I + 54L + 77I
  Fold change in IC50: 0.8 fold
Table 13, V052974, genotype 10I + 54L + 90M
  Fold change in IC50: 1.1 fold
Table 13, V052975, genotype 10I + 54L + 71V + 90M
  Fold change in IC50: 24.2 fold
Table 13, V052976, genotype 10I + 54L + 71V + 77I + 90M
  Fold change in IC50: 1.8 fold
Table 13, V053832, genotype 10I + 33F
  Fold change in IC50: 0.5 fold
Table 13, V053854, genotype 54L + 71V
  Fold change in IC50: 0.9 fold
Virco ID 214846, genotype 10I + 33F + 54V + 71V + 77I + 90M, vs mean IC50 of wild type laboratory HIV strain
  Fold change in IC50: 27.8 fold
Virco ID V021667, genotype 10I, vs mean IC50 of wild type laboratory HIV strain
  Fold change in IC50: 0.9 fold
Virco ID V030496, genotype 10I + 77I, vs mean IC50 of wild type laboratory HIV strain
  Fold change in IC50: 0.3 fold
Virco ID V048876, genotype 33F + 54V + 77I + 90M, vs mean IC50 of wild type laboratory HIV strain
  Fold change in IC50: 1.5 fold
Virco ID V048877, genotype 10I + 33F + 77I + 90M, vs mean IC50 of wild type laboratory HIV strain
  Fold change in IC50: 1.5 fold
Virco ID V048880, genotype 10I + 33F + 77I + 90M, vs mean IC50 of wild type laboratory HIV strain
  Fold change in IC50: 2.7 fold
Virco ID V052940, genotype 71V, vs mean IC50 of wild type laboratory HIV strain
  Fold change in IC50: 0.8 fold
Virco ID V052942, genotype 10I + 71V, vs mean IC50 of wild type laboratory HIV strain
  Fold change in IC50: 0.8 fold
Virco ID V052943, genotype 10I + 90M, vs mean IC50 of wild type laboratory HIV strain
  Fold change in IC50: 1.1 fold
Virco ID V052944, genotype 10I + 90M, vs mean IC50 of wild type laboratory HIV strain
  Fold change in IC50: 0.7 fold
Virco ID V052946, genotype 71V + 90M, vs mean IC50 of wild type laboratory HIV strain
  Fold change in IC50: 1.4 fold
Virco ID V052947, genotype 10I + 77I + 90M, vs mean IC50 of wild type laboratory HIV strain
  Fold change in IC50: 3.9 fold
Virco ID V052948, genotype 10I + 71V + 90M, vs mean IC50 of wild type laboratory HIV strain
  Fold change in IC50: 4.8 fold
Virco ID V052949, genotype 10I + 71V + 77I + 90M, vs mean IC50 of wild type laboratory HIV strain
  Fold change in IC50: 2.1 fold
Virco ID V052950, genotype 33F, vs mean IC50 of wild type laboratory HIV strain
  Fold change in IC50: 1.2 fold
Virco ID V052951, genotype 33F + 77I, vs mean IC50 of wild type laboratory HIV strain
  Fold change in IC50: 0.4 fold
Virco ID V052953, genotype 10I + 33F + 77I, vs mean IC50 of wild type laboratory HIV strain
  Fold change in IC50: 1.2 fold
Virco ID V052954, genotype 33F + 77I + 90M, vs mean IC50 of wild type laboratory HIV strain
  Fold change in IC50: 1.7 fold
Virco ID V052955, genotype 33F + 71V + 90M, vs mean IC50 of wild type laboratory HIV strain
  Fold change in IC50: 20.4 fold
Virco ID V052957, genotype 10I + 33F + 54V + 90M, vs mean IC50 of wild type laboratory HIV strain
  Fold change in IC50: 1.6 fold
Virco ID V052958, genotype 10I + 33F + 54V + 77I + 90M, vs mean IC50 of wild type laboratory HIV strain
  Fold change in IC50: 1.0 fold
Virco ID V052959, genotype 10I + 33F + 54V + 77I + 90M, vs mean IC50 of wild type laboratory HIV strain
  Fold change in IC50: 1.0 fold
Virco ID V052960, genotype 10I + 33F + 54V + 71V + 90M, vs mean IC50 of wild type laboratory HIV strain
  Fold change in IC50: 21.8 fold
Virco ID V052961, genotype 54V, vs mean IC50 of wild type laboratory HIV strain
  Fold change in IC50: 1.0 fold
Virco ID V052962, genotype 10I + 54V, vs mean IC50 of wild type laboratory HIV strain
  Fold change in IC50: 0.9 fold
Virco ID V052963, genotype 54V + 77I + 90M, vs mean IC50 of wild type laboratory HIV strain
  Fold change in IC50: 1.3 fold
Virco ID V052964, genotype 54V + 71V + 90M, vs mean IC50 of wild type laboratory HIV strain
  Fold change in IC50: 1.4 fold
Virco ID V052965, genotype 10I + 54V + 77I + 90M, vs mean IC50 of wild type laboratory HIV strain
  Fold change in IC50: 6.3 fold
Virco ID V052966, genotype 10I + 54V + 71V + 90M, vs mean IC50 of wild type laboratory HIV strain
  Fold change in IC50: 28.6 fold
Virco ID V052967, genotype 10I + 54V + 71V + 77I + 90M, vs mean IC50 of wild type laboratory HIV strain
  Fold change in IC50: 0.6 fold
Virco ID V053358, genotype 33F + 54V + 77I + 90M, vs mean IC50 of wild type laboratory HIV strain
  Fold change in IC50: 1.3 fold
Virco ID V053831, genotype 33F + 54V, vs mean IC50 of wild type laboratory HIV strain
  Fold change in IC50: 1.0 fold
Virco ID V053832, genotype 10I + 33F, vs mean IC50 of wild type laboratory HIV strain
  Fold change in IC50: 0.5 fold
